Results: ChEMBL document CHEMBL3414426, “Xanthone analogues as potent modulators of intestinal P-glycoprotein” (Eur J Med Chem, 2015)
Blank lines part the entries; values can stand above or below the compound they belong to. Calls of active or inactive are those of the source. No cut-off for these calls is given here.

Experiments:
[1] = target: T1, ATP-dependent translocase ABCB1 (Homo sapiens, UniProt P08183); assay: Inhibition of P-glycoprotein in human MCF7/ADR cells assessed as daunomycin IC50 at 100 uM after 2 hrs; format: cell-based; conditions: nci/adr-res
P-glycoprotein (ABCB1) = P-glycoprotein (ABCB1) (Homo sapiens, UniProt P08183); assay: (§1) Inhibition of P-glycoprotein in human MCF7/ADR cells assessed as reduction in [3H]-DNM efflux ratio at 100 uM after 1 hr relative untreated control; format: cell-based, NCI/ADR-RES; conditions: MCF7/ADR cells (NCI/ADR-RES), probe [3H]-DNM, read-out: Activity
A549 [2] = assay: Anticancer activity against human A549 cells xenografted in BALB/c athymic nude male mouse assessed as mouse survival rate at 5 mg/kg, po in presence of 40 mg/kg, po PTX administered on day 1, 5, 9 and 13 post tumor implantation; format: functional
[3] = Elimination half life in Sprague-Dawley rat at 15 mg/kg, po; format: ADME, organism-based; design: dose 15 mg/kg, route oral; conditions: in vivo, read-out: beta t1/2 (converted)
[4] = target: T1, ATP-dependent translocase ABCB1; assay: Inhibition of P-glycoprotein in human MCF7/ADR cells assessed as increase in [3H]-DNM accumulation at 100 uM after 2 hrs relative untreated control; format: cell-based; design: Activity: scale not given: the % may be the effect or the level left; conditions: nci/adr-res
Mus musculus [5] = assay: Toxicity in human A549 cells xenografted in BALB/c athymic nude male mouse assessed as maximum weight loss at 5 mg/kg, po in presence of 40 mg/kg, po PTX administered on day 1, 5, 9 and 13 post tumor implantation; format: organism-based; conditions: in vivo
Rattus norvegicus = assay: Absolute bioavailability in Sprague-Dawley rat at 5 mg/kg, iv; format: ADME, organism-based; conditions: in vivo
[6] = Elimination half life in Sprague-Dawley rat at 5 mg/kg, iv; format: ADME, organism-based; design: dose 5 mg/kg, route intravenous; conditions: in vivo, read-out: beta t1/2 (converted)
[7] = Tmax in Sprague-Dawley rat at 15 mg/kg, po; format: ADME, organism-based; design: dose 15 mg/kg, route oral; conditions: in vivo
[8] = Elimination rate constant in Sprague-Dawley rat at 5 mg/kg, iv; format: ADME, organism-based; design: dose 5 mg/kg, route intravenous; conditions: in vivo
[9] = Cmax in Sprague-Dawley rat at 15 mg/kg, po; format: ADME, organism-based; design: dose 15 mg/kg, route oral; conditions: in vivo
[10] = Absolute bioavailability in Sprague-Dawley rat at 15 mg/kg, po; format: ADME, organism-based; conditions: in vivo
[11] = Initial drug concentration in Sprague-Dawley rat blood at 5 mg/kg, iv; format: ADME, organism-based; design: dose 5 mg/kg, route intravenous
[12] = AUC (0 to t) in Sprague-Dawley rat at 15 mg/kg, po; format: ADME, organism-based; design: dose 15 mg/kg, route oral; conditions: plasma
[13] = Elimination rate constant in Sprague-Dawley rat at 15 mg/kg, po; format: ADME, organism-based; design: dose 15 mg/kg, route oral; conditions: in vivo
[14] = AUC (0 to t) in Sprague-Dawley rat at 5 mg/kg, iv; format: ADME, organism-based; design: dose 5 mg/kg, route intravenous; conditions: plasma
A549 [15] = assay: Anticancer activity against human A549 cells xenografted in BALB/c athymic nude male mouse assessed as mouse tumor growth inhibition rate at 10 mg/kg, po in presence of 40 mg/kg, po PTX administered on day 1, 5, 9 and 13 post tumor implantation; format: functional
NCI/ADR-RES = assay: Effect on P-glycoprotein expression in human MCF7/ADR cells at 100 uM after 2 hrs by Western blot analysis; format: functional, cell-based
Mus musculus [16] = assay: Toxicity in human A549 cells xenografted in BALB/c athymic nude male mouse assessed as maximum weight loss at 10 mg/kg, po in presence of 40 mg/kg, po PTX administered on day 1, 5, 9 and 13 post tumor implantation; format: organism-based; conditions: in vivo
A549 [17] = assay: Anticancer activity against human A549 cells xenografted in BALB/c athymic nude male mouse assessed as tumor growth inhibition rate at 5 mg/kg, po in presence of 40 mg/kg, po PTX administered on day 1, 5, 9 and 13 post tumor implantation; format: functional
A549 [18] = assay: Anticancer activity against human A549 cells xenografted in BALB/c athymic nude male mouse assessed as mouse survival rate at 10 mg/kg, po in presence of 40 mg/kg, po PTX administered on day 1, 5, 9 and 13 post tumor implantation; format: functional
[19] = target: T1, ATP-dependent translocase ABCB1; assay: as §1; format: cell-based, NCI/ADR-RES; conditions: nci/adr-res, 1 h, 100 µM

T1 sequence (P08183 whole entry): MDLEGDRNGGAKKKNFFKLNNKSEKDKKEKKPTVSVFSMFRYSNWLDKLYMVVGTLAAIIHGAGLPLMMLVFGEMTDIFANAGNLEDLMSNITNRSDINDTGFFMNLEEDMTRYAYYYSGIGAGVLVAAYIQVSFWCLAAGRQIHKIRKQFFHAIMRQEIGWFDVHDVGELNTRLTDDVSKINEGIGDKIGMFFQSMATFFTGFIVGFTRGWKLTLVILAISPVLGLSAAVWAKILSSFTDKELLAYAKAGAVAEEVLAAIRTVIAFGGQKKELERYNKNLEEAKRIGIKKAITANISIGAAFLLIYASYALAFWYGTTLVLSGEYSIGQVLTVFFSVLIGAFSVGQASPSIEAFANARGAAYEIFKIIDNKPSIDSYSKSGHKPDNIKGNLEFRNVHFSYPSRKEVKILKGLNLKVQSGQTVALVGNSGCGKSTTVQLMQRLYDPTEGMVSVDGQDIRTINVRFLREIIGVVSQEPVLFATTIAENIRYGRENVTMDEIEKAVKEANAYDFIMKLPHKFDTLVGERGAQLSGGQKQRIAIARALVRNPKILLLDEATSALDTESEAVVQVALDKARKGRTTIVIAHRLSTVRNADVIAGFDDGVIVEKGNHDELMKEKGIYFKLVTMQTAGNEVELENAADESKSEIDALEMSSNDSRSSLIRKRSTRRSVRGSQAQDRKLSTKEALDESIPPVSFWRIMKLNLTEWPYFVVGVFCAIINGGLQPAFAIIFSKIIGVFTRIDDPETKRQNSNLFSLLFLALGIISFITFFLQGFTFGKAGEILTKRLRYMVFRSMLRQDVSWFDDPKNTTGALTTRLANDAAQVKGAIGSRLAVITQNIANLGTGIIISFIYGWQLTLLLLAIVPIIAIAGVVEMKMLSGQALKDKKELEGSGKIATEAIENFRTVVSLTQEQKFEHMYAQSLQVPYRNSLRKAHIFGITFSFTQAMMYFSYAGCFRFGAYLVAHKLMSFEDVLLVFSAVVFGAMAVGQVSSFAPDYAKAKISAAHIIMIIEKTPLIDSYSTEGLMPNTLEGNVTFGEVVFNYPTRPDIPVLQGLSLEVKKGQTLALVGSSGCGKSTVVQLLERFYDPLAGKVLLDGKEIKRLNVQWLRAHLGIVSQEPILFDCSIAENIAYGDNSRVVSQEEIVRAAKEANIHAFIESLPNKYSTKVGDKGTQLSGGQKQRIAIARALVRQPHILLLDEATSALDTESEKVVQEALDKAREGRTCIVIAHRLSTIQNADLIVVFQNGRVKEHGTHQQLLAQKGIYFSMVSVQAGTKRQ
P-glycoprotein (ABCB1), sequence (P08183 whole entry): as above

inhibition (INH) [1]: Active
SMILES: O=c1c2ccccc2oc2cc(OCC(O)CCl)cc(O)c12 (configuration not stated)

SMILES: COc1cccc2c(=O)c3c(O)cc(OCC4CS4)cc3oc12 (configuration not stated)
inhibition (INH) [1]: Active

SMILES: O=c1c2ccccc2sc2cc(OCC(S)CCl)cc(O)c12 (configuration not stated)
inhibition (INH) [1]: Active

SMILES: O=c1c2ccccc2sc2cc(OCC(O)CCl)cc(O)c12 (configuration not stated)
inhibition at 1 h, 100 µM (P-glycoprotein (ABCB1)): 70.4%
Survival (A549 [2]): 80%
half-life [3]: 23.4 min
Activity [4]: 707%
Activity (Mus musculus [5]): 6.19%
F (Rattus norvegicus): 100%
half-life [6]: 21 min
Tmax [7]: 12.6 min
k el [8]: 0.000569 s⁻¹
Cmax [9]: 49 ng/mL
bioavailability [10]: 0.6%
C0 [11]: 44300 ng/mL
AUC(0-t) [12]: 23 ng·h/mL
k el [13]: 0.000539 s⁻¹
AUC(0-t) [14]: 1250 ng·h/mL
TGI (A549 [15]): 52.6%
inhibition (INH) [1]: Active
Activity (NCI/ADR-RES): inactive
Activity (Mus musculus [16]): 3.52%
TGI (A549 [17]): 61.6%
Survival (A549 [18]): 100%

SMILES: COc1cccc2c(=O)c3c(O)cc(OCC(S)CCl)cc3oc12 (configuration not stated)
inhibition (INH) [1]: Active

Activity [4]: 319%
inhibition (INH) [1]: Active
SMILES: COc1ccc(CCN(C)CCCC(C#N)(c2ccc(OC)c(OC)c2)C(C)C)cc1OC (configuration not stated) [VERAPAMIL]

SMILES: O=c1c2ccccc2oc2cc(OCC3CS3)cc(OCC3CS3)c12 (configuration not stated)
inhibition (INH) [1]: Active

SMILES: COc1cccc2c(=O)c3c(OCC4CS4)cc(OCC4CS4)cc3oc12 (configuration not stated)
inhibition (INH) [1]: Active

inhibition (INH) [1]: Active
SMILES: COc1cccc2c(=O)c3c(O)cc(OCC(O)CCl)cc3oc12 (configuration not stated)

inhibition (INH) [19]: Not Active
inhibition (INH) [4]: Not Active
inhibition (INH) [1]: Active
SMILES: COc1cc(OCC(O)CCl)cc2oc3ccccc3c(=O)c12 (configuration not stated)
Activity (NCI/ADR-RES): inactive

inhibition (INH) [1]: Active
SMILES: COc1cccc2c(=O)c3c(O)cc(OCC(O)CO)cc3oc12 (configuration not stated)

SMILES: O=c1c2ccccc2sc2cc(OCC3CS3)cc(O)c12 (configuration not stated)
inhibition (INH) [1]: Active

inhibition (INH) [1]: Active
SMILES: O=c1c2ccccc2oc2cc(OCC(O)CO)cc(O)c12 (configuration not stated)
